From patent US9944618B2, “Inhibiting neurotransmitter reuptake” (Mayo Foundation for Medical Education and Research, priority 2013, dated 2018)

Key:
[1] = pKa of basic centres (Table 1); format: physicochemical; conditions: first base, e.g., an aliphatic primary, secondary, or tertiary amine; read-out: pKa (Base 1)
[2] = target: human norepinephrine transporter (Homo sapiens (Human), UniProt P23975); experiment: Human NET (norepinephrine transporter) uptake assay; format: cell-based; conditions: for potency at hNET relative to the other enantiomer or epimer: comparison in words, used to assign configuration
Chain of human norepinephrine transporter (P23975 whole entry): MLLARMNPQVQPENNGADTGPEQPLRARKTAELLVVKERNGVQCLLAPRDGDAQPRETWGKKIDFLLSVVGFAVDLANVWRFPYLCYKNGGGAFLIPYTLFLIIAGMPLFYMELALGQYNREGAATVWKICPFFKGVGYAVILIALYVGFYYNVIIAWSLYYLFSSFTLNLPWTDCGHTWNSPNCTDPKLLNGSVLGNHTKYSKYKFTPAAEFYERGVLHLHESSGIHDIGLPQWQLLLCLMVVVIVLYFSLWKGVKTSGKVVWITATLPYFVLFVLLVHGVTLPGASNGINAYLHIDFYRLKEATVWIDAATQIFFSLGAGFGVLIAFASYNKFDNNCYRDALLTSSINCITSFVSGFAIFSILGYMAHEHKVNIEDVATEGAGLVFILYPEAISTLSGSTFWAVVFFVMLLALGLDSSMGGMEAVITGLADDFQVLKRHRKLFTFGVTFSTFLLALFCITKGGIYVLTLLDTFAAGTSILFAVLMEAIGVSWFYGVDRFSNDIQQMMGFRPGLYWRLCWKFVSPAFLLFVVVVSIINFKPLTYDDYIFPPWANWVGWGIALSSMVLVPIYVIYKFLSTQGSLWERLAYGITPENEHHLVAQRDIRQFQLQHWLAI
Procedure: This protocol was designed to measure inhibition of uptake by the human norepinephrine transporter. […] The Assay Buffer (AB) was 1×HBSS and 0.02 M HEPES.
The HEK293F cells were transfected with the human norepinephrine transporter and frozen in 1 mL aliquots at about 1E+07 cells/mL. On the day of the experiment, the cells were removed from −80° C. or liquid nitrogen and thawed in a room temperature water bath. The cells were dilute to about 1-2E+06 with Freestyle medium. A 1 mL sample (1:2 dilution) was prepared, and the cells were counted. The cells were spun at 1100 rpm for 5 minutes, and the medium was aspirated off. The cells were resuspend in medium at 1.5E+06 cells/mL for about 60,000 cells per well. 40 μL of cells were dispensed per well in the Biocoat plates. The plates were spun at 1100 rpm for 1 minute to improve homogeneity of the cell layer and were incubated at 37° C. for a minimum of 3 hours.
12 μL of test compound (10 mM) in DMSO was added to the wells, and nomifensine was used as a control. […] The neurotransmitter transporter dye was prepared in AB prior to use.
Due to the proprietary nature of the dye formulation, all dye concentrations were expressed as a percentage of the vendor-recommended dye reconstitution. Thus, the above calculations were valid when both [dye] and Km were expressed in the same units (%). Compounds were tested in triplicate (n=3).

Row | SMILES | potency at hNET relative to the other enantiomer or epimer [2] | also measured
1 | CNCC(Cc1ccccc1F)c1ccc2ccccc2c1 (racemic) [Compound 36] | – | pKa [1]: 10
2 | CNCC(Cc1ccccc1F)c1ccc2ccccc2c1 (stereo not shown) [Compound 17] | – | pKa [1]: 10
3 | CNC[C@H](c1ccc2ccccc2c1)[C@H](OCC(=O)N1CC[C@H](OC)C1)c1ccccc1 [Compound 131] | – | pKa [1]: 9.6
4 | CNC[C@H](Cc1ccccc1F)c1ccc2ccccc2c1 [Compound 138] | – | pKa [1]: 10
5 | CNCC(CCc1ccccc1)[C@@H](O)c1ccccc1 (stereo partly shown) [compound 147] | lower potency | –
6 | CNC[C@H](c1ccc(Cl)c(Cl)c1)[C@H](O)c1cccc(I)c1 [compound 151] | higher potency | –
7 | CNC[C@H](c1ccc(Cl)c(Cl)c1)[C@@H](O)c1ccccc1I [compound 152] | higher potency | –
8 | CNC[C@@H](c1ccc(Cl)c(Cl)c1)[C@@H](O)c1cccc(SC)c1 [compound 154] | lower potency | –
9 | CNC[C@@H](c1ccc(Cl)c(Cl)c1)[C@@H](O)c1cccc(OC)n1 [compound 157] | lower potency | –
10 | CCc1ccccc1[C@@H](O)[C@H](CNC)c1ccc(Cl)c(Cl)c1 [compound 158] | – | potency at hNET ([2]; stated in synthesis example): 6 nM
11 | CCc1cccc([C@@H](O)[C@H](CNC)c2ccc(Cl)c(Cl)c2)c1 [compound 159] | more potent | –
12 | CNC[C@H](c1ccc(Cl)c(Cl)c1)[C@H](O)c1ccccc1OC [compound 160] | greater hNET potency | –
13 | CNC[C@H](c1ccc(Cl)c(Cl)c1)[C@@H](O)c1cccc(Br)c1 [compound 161] | more potent | –
14 | CNC[C@@H](c1ccc(Cl)c(Cl)c1)[C@@H](O)c1cccc(Br)c1 [compound 162] | less potent | –
15 | CNC[C@H](c1ccc(Cl)c(Cl)c1)[C@@H](O)c1cccc(SC)c1 [compound 163] | more potent | –
16 | CNC[C@H](c1ccc(Cl)c(Cl)c1)[C@H](O)c1ccccc1I [compound 164] | greater potency | –
17 | CNC[C@H](c1ccc(Cl)c(Cl)c1)[C@@H](O)c1cccc(I)c1 [compound 165] | higher potency | –
18 | CNC[C@H](c1ccc(Cl)c(Cl)c1)[C@H](O)c1cncc(OC)c1 [compound 166] | more potent | –
19 | CNC[C@H](c1ccc(Cl)c(Cl)c1)[C@H](O)c1cccc(OC)n1 [compound 167] | higher potency | –
20 | CNCC(c1ccc2ccccc2c1)[C@@H](O)c1ccc(Cl)nc1 (stereo partly shown) [compound 169] | lower potency | –
21 | CNC[C@@H](c1ccc(Cl)c(Cl)c1)[C@@H](O)c1cccnc1OC [compound 171] | less potent | –
22 | CNC[C@@H](c1ccc(Cl)c(Cl)c1)[C@@H](OC)c1cccc(NS(=O)(=O)C(F)(F)F)c1 [compound 172] | less potent | –
